Data taken from the supplement of paper PMC10307832.

Tests used:
Test in all cases: relative viability (nuclei count vs DMSO), 5 days (fraction); higher = more cells survive
NCI-H1755 = test system: NCI-H1755
Procedure, shortened: (§1)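 Lung cancer cell lines in 1536-well plates got either a single drug or a fixed anchor-drug dose together with five library-drug doses (not always all listed) in √10 steps, by pin tool, on the day after seeding. Nuclei were counted after 5 days, and relative viability is the treated-to-vehicle ratio of nuclei counts. Values are medians of duplicate plates.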

LXF-289 = test system: LXF-289
Procedure, shortened: as §1

HCC-78 = test system: HCC-78
Procedure, shortened: as §1

HCC-15 = test system: HCC-15
Procedure, shortened: as §1

NCI-H2085 = test system: NCI-H2085
Procedure, shortened: as §1

NCI-H3122 = test system: NCI-H3122
Procedure, shortened: as §1

EPLC-272H = test system: EPLC-272H
Procedure, shortened: as §1

NCI-H2023 = test system: NCI-H2023
Procedure, shortened: as §1

NCI-H358 = test system: NCI-H358
Procedure, shortened: as §1

CAL-12T = test system: CAL-12T
Procedure, shortened: as §1

NCI-H441 = test system: NCI-H441
Procedure, shortened: as §1

NCI-H2126 = test system: NCI-H2126
Procedure, shortened: as §1

HOP-62 = test system: HOP-62
Procedure, shortened: as §1

NCI-H1666 = test system: NCI-H1666
Procedure, shortened: as §1

NCI-H1915 = test system: NCI-H1915
Procedure, shortened: as §1

UMC-11 = test system: UMC-11
Procedure, shortened: as §1

EMC-BAC-2 = test system: EMC-BAC-2
Procedure, shortened: as §1

ChaGo-K-1 = test system: ChaGo-K-1
Procedure, shortened: as §1

ABC-1 = test system: ABC-1
Procedure, shortened: as §1

NCI-H1975 = test system: NCI-H1975
Procedure, shortened: as §1

NCI-H322M = test system: NCI-H322M
Procedure, shortened: as §1

COR-L 105 = test system: COR-L 105
Procedure, shortened: as §1

## COc1nc(C)cnc1NS(=O)(=O)c1cccnc1-c1ccc(-c2nnco2)cc1 [Zibotentan] + CC(=O)c1c(C)c2cnc(Nc3ccc(N4CCNCC4)cn3)nc2n(C2CCCC2)c1=O [Palbociclib] (partner 0.5 µM)
NCI-H1755; first compound 0.08 µM
  relative viability: 0.421
NCI-H1755; first compound 0.253 µM
  relative viability: 0.497
NCI-H1755; first compound 0.8 µM
  relative viability: 0.447
NCI-H1755; first compound 2.53 µM
  relative viability: 0.453
LXF-289; first compound 0.08 µM
  relative viability: 0.577
LXF-289; first compound 0.253 µM
  relative viability: 0.55
LXF-289; first compound 0.8 µM
  relative viability: 0.592
LXF-289; first compound 2.53 µM
  relative viability: 0.61
HCC-78; first compound 0.08 µM
  relative viability: 0.464
HCC-78; first compound 0.253 µM
  relative viability: 0.488
HCC-78; first compound 0.8 µM
  relative viability: 0.512
HCC-78; first compound 2.53 µM
  relative viability: 0.512
HCC-15; first compound 0.08 µM
  relative viability: 0.796
HCC-15; first compound 0.253 µM
  relative viability: 0.641
HCC-15; first compound 0.8 µM
  relative viability: 0.796
HCC-15; first compound 2.53 µM
  relative viability: 0.713
NCI-H2085; first compound 0.08 µM
  relative viability: 0.47
NCI-H2085; first compound 0.253 µM
  relative viability: 0.466
NCI-H2085; first compound 0.8 µM
  relative viability: 0.496
NCI-H2085; first compound 2.53 µM
  relative viability: 0.47
NCI-H3122; first compound 0.08 µM
  relative viability: 0.186
NCI-H3122; first compound 0.253 µM
  relative viability: 0.177
NCI-H3122; first compound 0.8 µM
  relative viability: 0.154
NCI-H3122; first compound 2.53 µM
  relative viability: 0.18
EPLC-272H; first compound 0.08 µM
  relative viability: 0.348
EPLC-272H; first compound 0.253 µM
  relative viability: 0.246
EPLC-272H; first compound 0.8 µM
  relative viability: 0.366
EPLC-272H; first compound 2.53 µM
  relative viability: 0.33
NCI-H2023; first compound 0.08 µM
  relative viability: 0.409
NCI-H2023; first compound 0.8 µM
  relative viability: 0.355
NCI-H2023; first compound 2.53 µM
  relative viability: 0.356
NCI-H358; first compound 0.08 µM
  relative viability: 0.152
NCI-H358; first compound 0.253 µM
  relative viability: 0.117
NCI-H358; first compound 2.53 µM
  relative viability: 0.125
CAL-12T; first compound 0.08 µM
  relative viability: 0.625
CAL-12T; first compound 0.253 µM
  relative viability: 0.365
CAL-12T; first compound 0.8 µM
  relative viability: 0.629
CAL-12T; first compound 2.53 µM
  relative viability: 0.508
NCI-H441; first compound 0.08 µM
  relative viability: 0.237
NCI-H441; first compound 0.253 µM
  relative viability: 0.197
NCI-H441; first compound 0.8 µM
  relative viability: 0.254
NCI-H441; first compound 2.53 µM
  relative viability: 0.24
NCI-H2126; first compound 0.08 µM
  relative viability: 0.316
NCI-H2126; first compound 0.253 µM
  relative viability: 0.338
NCI-H2126; first compound 0.8 µM
  relative viability: 0.34
NCI-H2126; first compound 2.53 µM
  relative viability: 0.362
HOP-62; first compound 0.08 µM
  relative viability: 0.47
HOP-62; first compound 0.253 µM
  relative viability: 0.431
HOP-62; first compound 0.8 µM
  relative viability: 0.518
HOP-62; first compound 2.53 µM
  relative viability: 0.451
NCI-H1666; first compound 0.08 µM
  relative viability: 0.682
NCI-H1666; first compound 0.253 µM
  relative viability: 0.594
NCI-H1666; first compound 0.8 µM
  relative viability: 0.694
NCI-H1666; first compound 2.53 µM
  relative viability: 0.692
NCI-H1915; first compound 0.08 µM
  relative viability: 0.586
NCI-H1915; first compound 0.253 µM
  relative viability: 0.499
NCI-H1915; first compound 0.8 µM
  relative viability: 0.546
NCI-H1915; first compound 2.53 µM
  relative viability: 0.569
UMC-11; first compound 0.08 µM
  relative viability: 0.35
UMC-11; first compound 0.253 µM
  relative viability: 0.323
UMC-11; first compound 0.8 µM
  relative viability: 0.363
UMC-11; first compound 2.53 µM
  relative viability: 0.323
EMC-BAC-2; first compound 0.08 µM
  relative viability: 0.532
EMC-BAC-2; first compound 0.8 µM
  relative viability: 0.546
EMC-BAC-2; first compound 2.53 µM
  relative viability: 0.503
ChaGo-K-1; first compound 0.08 µM
  relative viability: 0.965
ChaGo-K-1; first compound 0.253 µM
  relative viability: 0.945
ChaGo-K-1; first compound 0.8 µM
  relative viability: 0.947
ChaGo-K-1; first compound 2.53 µM
  relative viability: 0.972
ABC-1; first compound 0.08 µM
  relative viability: 0.603
ABC-1; first compound 0.253 µM
  relative viability: 0.475
ABC-1; first compound 0.8 µM
  relative viability: 0.664
ABC-1; first compound 2.53 µM
  relative viability: 0.676
NCI-H1975; first compound 0.08 µM
  relative viability: 0.517
NCI-H1975; first compound 0.253 µM
  relative viability: 0.526
NCI-H1975; first compound 0.8 µM
  relative viability: 0.553
NCI-H1975; first compound 2.53 µM
  relative viability: 0.596
NCI-H322M; first compound 0.08 µM
  relative viability: 0.465
NCI-H322M; first compound 0.253 µM
  relative viability: 0.408
NCI-H322M; first compound 0.8 µM
  relative viability: 0.49
NCI-H322M; first compound 2.53 µM
  relative viability: 0.521
COR-L 105; first compound 0.08 µM
  relative viability: 0.381
COR-L 105; first compound 0.253 µM
  relative viability: 0.375
COR-L 105; first compound 0.8 µM
  relative viability: 0.373
COR-L 105; first compound 2.53 µM
  relative viability: 0.45
